Data from article doi:10.1101/2021.01.21.427566v1, “Gradual opening of Smc arms in prokaryotic condensin” (biorxiv, 2021).

Key:
Smc-ScpAB holo-complex = target: T1, Smc-ScpAB holo-complex (Bacillus subtilis, UniProt P51834); assay: coupled ATPase assay, ATP titration; type: biochemical; conditions: wild-type Smc with ScpAB, pH 7.5, 2 mM MgCl2, 25 °C
T1 construct: full-length native (untagged) Smc, ScpA and ScpB purified separately from E. coli and mixed stoichiometrically; with Segregation and condensation protein A; Segregation and condensation protein B
T1 sequence (P51834 1-1186): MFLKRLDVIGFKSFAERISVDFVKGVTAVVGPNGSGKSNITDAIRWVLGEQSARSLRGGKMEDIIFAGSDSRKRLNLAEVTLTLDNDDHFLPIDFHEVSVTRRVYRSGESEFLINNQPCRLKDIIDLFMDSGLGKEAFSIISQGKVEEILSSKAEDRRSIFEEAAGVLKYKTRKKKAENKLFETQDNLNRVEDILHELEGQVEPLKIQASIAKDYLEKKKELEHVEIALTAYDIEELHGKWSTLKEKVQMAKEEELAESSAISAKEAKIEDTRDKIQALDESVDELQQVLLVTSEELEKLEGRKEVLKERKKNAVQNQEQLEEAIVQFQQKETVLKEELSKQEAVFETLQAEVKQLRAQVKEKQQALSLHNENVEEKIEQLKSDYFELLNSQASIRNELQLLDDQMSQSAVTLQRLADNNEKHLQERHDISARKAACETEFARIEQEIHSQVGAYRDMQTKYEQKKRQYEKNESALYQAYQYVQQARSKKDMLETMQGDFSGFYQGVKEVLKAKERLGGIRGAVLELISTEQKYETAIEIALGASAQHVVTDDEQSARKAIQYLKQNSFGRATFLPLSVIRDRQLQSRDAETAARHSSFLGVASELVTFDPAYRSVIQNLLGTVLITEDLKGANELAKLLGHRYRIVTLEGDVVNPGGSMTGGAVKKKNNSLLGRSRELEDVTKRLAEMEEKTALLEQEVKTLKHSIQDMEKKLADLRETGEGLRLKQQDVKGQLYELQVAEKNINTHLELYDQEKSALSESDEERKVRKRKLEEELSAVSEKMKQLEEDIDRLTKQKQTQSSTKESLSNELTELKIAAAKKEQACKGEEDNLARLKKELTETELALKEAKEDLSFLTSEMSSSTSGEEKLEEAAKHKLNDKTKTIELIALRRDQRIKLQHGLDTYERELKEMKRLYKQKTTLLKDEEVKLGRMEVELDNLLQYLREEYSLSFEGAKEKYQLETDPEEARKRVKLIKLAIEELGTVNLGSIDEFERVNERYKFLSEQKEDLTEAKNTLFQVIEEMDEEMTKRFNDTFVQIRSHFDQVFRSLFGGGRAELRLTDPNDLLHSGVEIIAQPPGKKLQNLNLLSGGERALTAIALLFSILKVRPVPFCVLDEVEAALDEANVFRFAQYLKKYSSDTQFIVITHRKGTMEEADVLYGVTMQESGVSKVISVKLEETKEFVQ
T1 sequence (P35154 1-251 partner): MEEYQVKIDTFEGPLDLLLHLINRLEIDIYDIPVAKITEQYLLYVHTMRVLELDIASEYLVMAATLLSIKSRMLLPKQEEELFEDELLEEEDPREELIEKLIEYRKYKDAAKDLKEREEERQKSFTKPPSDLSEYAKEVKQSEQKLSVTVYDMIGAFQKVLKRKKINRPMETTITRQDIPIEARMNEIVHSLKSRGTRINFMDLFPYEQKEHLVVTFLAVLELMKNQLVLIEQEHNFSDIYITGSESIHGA
T1 sequence (P35155 1-197 partner): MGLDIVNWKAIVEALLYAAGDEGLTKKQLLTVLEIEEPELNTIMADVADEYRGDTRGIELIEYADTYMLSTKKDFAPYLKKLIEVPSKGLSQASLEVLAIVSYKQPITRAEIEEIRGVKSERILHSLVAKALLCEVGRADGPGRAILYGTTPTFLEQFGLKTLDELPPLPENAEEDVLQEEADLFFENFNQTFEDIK

[1] = target: T2, Bsu Smc (Smc dimer without ScpAB) (Bacillus subtilis, UniProt P51834); assay: coupled ATPase assay, ATP titration; type: biochemical; conditions: wild-type Smc, no DNA, pH 7.5, 2 mM MgCl2, 25 °C
T2 construct: full-length native (untagged) Smc, expressed in E. coli BL21-Gold (DE3) from pET-22/pET-28; homodimer
T2 sequence (P51834 1-1186): T1 sequence (P51834 1-1186)

Nc1ncnc2c1ncn2[C@@H]1O[C@H](COP(=O)(O)OP(=O)(O)OP(=O)(O)O)[C@@H](O)[C@H]1O [ATP]
coupled ATPase assay, ATP titration (Smc-ScpAB holo-complex): increasing concentrations of ATP and in the absence or presence of dsDNA40 and ScpAB | coupled ATPase assay, ATP titration [1]: Measurement of ATP hydrolysis rates for Smc protein (wt), Smc(G302W) and Smc(G302E)
